Source: patent publication US20110003382A1, “USE OF CORTICOSTERONE FOR INCREASING EGG ANTIBODY” (WISCONSIN ALUMNI RESEARCH FOUNDATION, priority 2009, published 2011)

Key:
broilers = details: dietary CORT 30 mg/kg diet for 1 week; cited from earlier work
[1] = system: Single Comb White Leghorn hens; assay: Peripheral blood mononuclear cell (PBMC) counts; format: in vivo
Description: Peripheral Blood Mononuclear Cell Counts. […] Whole blood (2-3 ml) was collected from wing vein into heparin-containing tubes (Becton Dickinson, Sparks, Md.). In 15-ml conical tubes, blood (2 ml) was layered on an equal volume (2 ml) of 1077 Histopaque (Sigma-Aldrich), and centrifuged at 400×g for 30 minutes at room temperature. Mononuclear cells were collected from the gradient interface, and re-suspended in PBS to the original blood volume (2 ml) or the sample. PBMCs were further diluted (1:16) in PBS, mixed with an equal volume of 0.4% trypan blue solution (Sigma-Aldrich), and counted, microscopically, with the aid of a hemacytometer.

[2] = system: Single Comb White Leghorn hens; assay: Anti-PLA2 antibody titer in serum of immunized hens by ELISA; format: in vivo; details: weeks 2 to 3 after primary immunization
Excerpt: In all Examples, Single Comb White Leghorn hens (SCWL) used were transported as pullets (18- to 22-weeks of age) from S&R Farms (Whitewater, Wis.) to University of Wisconsin—Madison Poultry Research Laboratory. Hens were individually housed in cages with raised bottom floors for at least four weeks before being assigned to an Example, and were 26- to 60-weeks of age at the beginning of experiments. Hens were fed, ad libitum, a standard corn-soybean meal based laying hen diet formulated to meet nutritional requirements. Housing was maintained under an automated lighting schedule with 16:8-h light-dark cycle. All procedures involving animals were approved by Animal Care Committee at University of Wisconsin, Madison.
The antigen selected for comparing the antibody response of hens was a 13 kDa soluble protein antigen, phospholipase A2 (PLA2) purified from porcine pancreas (Novozyme, Bagsvaerd, Denmark; greater than 90% purity based on SDS-PAGE). PLA2 was used because of its commercial relevance, and its previous use as a model antigen for studying hen antibody response (Trott, et al., 2008, “Additions of killed whole cell bacteria preparations to Freund complete adjuvant alter laying hen antibody response to soluble protein antigen,” Poult. Sci., 87(5):912-917). […]
Anti-PLA2 antibody content of egg yolk and serum samples were measured by an ELISA (Trott, et al., 2008). […]

[3] = system: Single Comb White Leghorn hens; assay: Egg production (laying frequency); format: in vivo
Description: Measurement of body weight and egg production. […] Initial body weight of adult laying hens, 26- to 60-weeks of age, was reported when measured at the beginning of experiments. Data were expressed as a percentage of initial body weight (% initial BW) to determine effects of CORT on change in body weight. Eggs produced were recorded daily for each hen. Laying frequency (or egg production) of each hen during each 7 day period measured, was obtained by dividing the total number of eggs laid by 7.

[4] = Example 3: CORT 5 days, week 1 after diet administration
[5] = Example 4: CORT 6 days, weeks 4 to 10 after primary immunization

## C[C@]12C[C@H](O)[C@H]3[C@@H](CCC4=CC(=O)CC[C@@]43C)[C@@H]1CC[C@@H]2C(=O)CO [CORT, corticosterone]
broilers
  effect on body weight gain in broilers: negatively affect
[1]; Example 3: CORT 5 days beginning day 7 before immunization, p=0.82
  overall effect of CORT on PBMC counts: no effect
[1]; [4]
  PBMC count: 17,800 cells/μl blood
[1]; Example 3: CORT 5 days, week 1 after diet administration, p=0.025
  PBMC count as % of control-fed hens: 49%
[1]; Example 3: CORT 5 days, week 2 after diet administration
  PBMC count: 35,400 cells/μl blood
[1]; Example 4: CORT 30 mg/kg diet 6 days, week 1 after diet administration
  PBMC count: 9,200 cells/μl blood
[1]; Example 4: CORT 6 days, week 1 after diet administration, p<0.0001
  PBMC count as % of control-fed hens: 43%
[1]; Example 4: CORT 6 days, week 2
  PBMC count: 12,900 cells/μl blood
[1]; Example 4: CORT 6 days, week 2, p=0.001
  PBMC count as % of control-fed hens: 59%
[1]; Example 4: CORT 6 days, week 3, returned to control levels, p=0.57
  PBMC count: 19,700 cells/μl blood
[2]; Example 4: CORT 30 mg/kg diet for 6 days beginning on day 1 before primary immunization
  serum antibody titer (Log2 titer): 17.65 Log2 titer
[2]; Example 4: CORT 6 days, p=0.008
  fold higher serum antibody titer vs control hens: 4.9 fold
[3]; Example 3: CORT 5 days, p=0.004
  decrease in egg production between week 1 before and week 1 after diet administration: 21%
[3]; Example 3: CORT 5 days, p=0.57
  overall difference in egg production vs control-fed hens: no overall difference
[3]; Example 3: CORT 5 days, throughout the Example
  egg production, overall: 73%
[3]; [4]
  egg production: 50%
[3]; Example 3: CORT 5 days, week 1 after diet administration, p=0.005
  egg production less than control-fed hens: 34%
[3]; Example 3: CORT 5 days, week 2
  egg production: 62%
[3]; Example 3: CORT 5 days, week 2, p=0.014
  egg production less than control-fed hens: 29%
[3]; Example 4: CORT 6 days
  overall egg production less than control-fed hens: 35%
[3]; Example 4: CORT 6 days, week 1 after diet administration
  egg production suppressed vs control-fed hens: 50%
[3]; Example 4: CORT 6 days, week 2 after diet administration
  egg production suppressed vs control-fed hens: 100%
[3]; Example 4: CORT 6 days, week 3 after diet administration
  egg production suppressed vs control-fed hens: 80%
[3]; Example 4: CORT 6 days, weeks 0 to 10
  overall egg production: 54%
[3]; [5]
  egg production: 69%
  egg production lower than control-fed hens: 17%
[3]; Example 5: CORT 9 days
  overall egg production: 39%
  overall egg production less than control-fed hens: 31%
[3]; Example 5: CORT 9 days, week 4 after diet administration
  egg production suppressed vs control-fed hens: 80%
[3]; Example 5: CORT 9 days, week 5 after diet administration
  egg production: 45%
[3]; Example 5: CORT 9 days, week 5 after diet administration, p=0.007
  egg production lower than control-fed hens: 50%
[3]; Example 5: CORT 9 days, weeks 2 and 3 after diet administration
  egg production suppressed vs control-fed hens: 60%
[3]; Example 5: CORT 9 days, weeks 6 to 11 after primary immunization
  egg production: 53%
[3]; Example 5: CORT 9 days, weeks 6 to 11 after primary immunization, p=0.001
  egg production lower than control-fed hens: 14%
